Test results taken from patent US12589143B2, “Human anti-PD-L1 peptide vaccines and methods of their use” (priority 2019, dated 2026).
Where no end group is shown, it is not given here.

Assays:
[1] = target: T1, PD-1/PD-L1 interaction (Homo sapiens, UniProt Q9NZQ7); test: PD-1/PD-L1 blockade bioassay (Promega); format: cell-based; conditions: antibodies from immunized rabbits, compared to Nivolumab and Atezolizumab
T1 construct: host or cells: PD-L1 aAPC/CHO-K1 cells and PD-1 effector cells
Method: The assay was performed following the manufacturer's protocol for the PD-1/PD-L1 blockade bioassay (Promega).
The bioluminescent cell-based PD-1/PD-L1 blockade bioassays provide a good option for rapid screening of therapeutic antibodies or other compounds developed to interfere with PD-1-signaling interaction. PD1/PD-L1 blockade assay was used to test the functionality of 3 anti-PD-L1 antibodies. It was observed that purified polyclonal anti-PD-L1 antibody from the rabbits was able to block PD1/PD-L1 interaction similar to commercial anti-human PD-L1 antibody (FIG. 12). […] In FIG. 12, we show the capacity of each of the PD-L1 vaccines to block the PD-1:PD-L1 interaction as compared to Nivolumab and Atezolizumab. Remarkably only PD-L1 130-147 antibodies were effective
The assay was performed following the manufacturer's protocol for the PD-1/PD-L1 blockade bioassay (Promega). In brief, 4×10^5 aAPC/CHO-K1 or PD-L1 aAPC/CHO-K1 cells were seeded into 96-well plates in RPMI-1640 with 10% FBS. After overnight culturing, the medium was aspirated, and serially diluted purified PD-L1 or PD-1 antibodies, as well as Nivolumab and Atezolizumab antibodies (as reference antibodies) were added. Next, PD-1 effector cells were co-cultured and plate was kept for 5 h at 37° C. in a humidified 5% CO2 incubator. Following mixing with Bio-Glo Reagent, the luminescence was measured with a luminescence plate reader, SpectraMax M3 plate reader (Molecular Devices).

[2] = tested on: D2F2 WT tumor cells; test: D2F2 WT tumor challenge in Balb/c mice; format: in vivo; conditions: day 21 and day 28
Method: Balb/c mice 6-8 weeks old, were immunized with G1 and G2 mice were treated with anti-PD-1 mAb (29F.1A12) (G1) or anti-PD-L1 mAb (10F.9G2) (G2 or with MVF-PD-L1 vaccine constructs [PD-L1(92-110)(G3) PD-L1(130-147)(G4)] prior to tumor challenge. Similarly, G10, G11 and G12 are control groups and were not treated prior to tumor cell challenge. G13, G14 and G15 mice were immunized with 100 ug MVF-HER-2(266-296)+100 ug MVF-HER-2(597-626)+ISA720 per mouse for G13, 100 ug MVF-PD-1 (92-110)+100 ug MVF-HER-2(266-296)+100 ug MVF-HER-2(597-626)+ISA720 per mouse for G14 and 100 ug MVF-PD-L1 (130-147)+100 ug MVF-HER-2(266-296)+100 ug MVF-HER-2(597-626)+ISA720 per mouse for G15. The mice were immunized up to 4 times before tumor challenge. […] All the mice had been monitored at least twice per week, and the tumors were measured with calipers as data indicated.
The tumor volumes were measured by calipers and calculated by formula: (length×width2)/2. […] All the peptides immunized groups of mice are shown with less tumor burden than PBS group and mAbs treated groups as well.
G0, G1 and G2 are control groups, mice in these groups were not treated before tumor cells challenge. Following challenge with D2F2 WT tumor cells, G0 mice were treated with PBS (i.p.) twice per week start from day 2 post challenge served as negative control, G1 and G2 mice were treated with anti-PD-1 mAb (29F.1A12) or anti-PD-L1 mAb (10F.9G2), respectively. Treatment for G1 and G2 mouse groups was also started from day 2 post tumor challenge, with 100 ug administered/mouse twice a week. G1 and G2 served as positive control. […] All the mice had been monitored at least twice per week, and the tumors were measured with calipers as data indicated (FIG. 26).
Mice were immunized with designed peptides vaccines as descripted in FIG. 26, which indicated as 1Y, 2Y, 3Y and 4Y here and with 3 weeks apart. […] And the mice were monitor at least twice per week, and the tumors were measured as shown in the data figures.
The tumor volumes were measured by calipers and calculated by formula: (length×width2)/2. […]

[3] = tested on: HER-2 positive breast cancer; conditions: patients with untreated HER-2 positive breast cancer; pertuzumab added to docetaxel and trastuzumab vs without; cited from earlier work

T1 sequence (Q9NZQ7 19-290): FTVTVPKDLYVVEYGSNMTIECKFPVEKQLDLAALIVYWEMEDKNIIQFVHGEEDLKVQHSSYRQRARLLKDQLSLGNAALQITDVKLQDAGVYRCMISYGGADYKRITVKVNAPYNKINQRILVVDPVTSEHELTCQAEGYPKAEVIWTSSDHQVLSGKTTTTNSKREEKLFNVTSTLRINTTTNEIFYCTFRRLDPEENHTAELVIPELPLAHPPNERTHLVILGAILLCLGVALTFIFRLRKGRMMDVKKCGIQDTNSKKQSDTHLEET

Substance | blocking of PD-1/PD-L1 interaction [1] | tumor volume [2] | overall survival [3] | progression-free survival [3]
MVF-PD-1(92-110) (KLLSLIKGVIVHRLEGVEDCRFRVTQLPNGRDFHMSV-NH2) | unable to block PD-1 and PD-L1 | smaller tumor volume than PBS negative control group and both of mAbs positive control groups |  | 
pertuzumab |  |  | 56.5 months | 18.5 months
